In patent US20030153513A1, “Preventives or remedies for obesity or fatty liver” (priority 2000, published 2003):

Legend:
Type in all cases: in vivo
[1] = test system: C57BL/6J mice; assay: Test Example 1: body weight increase, non-obesity normal mice, 12 weeks oral; settings: non-obesity normal C57BL/6J mice, 10 mg/kg/day oral, FIG. 1-A
Method: (§1) In the test example, each 10 of the male KKA^y/Ta Jcl mice and C57BL/6J mice aged 10 weeks were used as obesity model mice and non-obesity normal model mice, respectively. The compound of Preparation 1 was orally administered to the animals at 10 mg/kg/day for 12 weeks continuously, and the body weights of the animals were daily measured. Four hours after the final administration of the compound, the animals were sacrificed, and the levels of triglyceride in the liver tissues were determined.
(§2) The compound of Preparation 1 had been suspended in an aqueous solution of 5% gum arabic (Nakarai Chemcial, Lot. M5E5329) to provide a 0.1% suspension for use. As a control, only a vehicle (5% aqueous gum arabic solution) was administered as well, and the triglyceride level was also determined.

[2] = test system: KKA^y/Ta Jcl mice; assay: Test Example 1: triglyceride level in liver tissue, obesity model mice, 12 weeks oral; settings: 10 mg/kg/day
Method: as §1, §2

[3] = test system: KKAy/Ta Jcl mice; assay: Test Example 2: triglyceride level in liver tissue, obesity model mice, 2 weeks
Method: In a similar way to Test Example 1, the male KKAy/Ta Jcl mice aged 10 weeks were orally administered with the compound of Preparation 1 at 10 mg/kg/day, and fed a diet containing 3% cholestyramine (corresponding to about 4 g/kg/day) for two weeks continuously, and the level of triglyceride in the liver tissue was determined (eight animals per group). Also, the control was administered with only a vehicle (5% aqueous gum arabic solution).

[4] = test system: C57BL/6J mice; assay: Test Example 1: triglyceride level in liver tissue, normal mice, 12 weeks oral; settings: oral administration for 12 weeks, 10 mg/kg/day, 4 h after final dose
Method: as §1, §2

[5] = test system: KKA^y/Ta Jcl mice; assay: Test Example 1: body weight increase, obesity model mice, 12 weeks oral; settings: 10 mg/kg/day oral, FIG. 1-B
Method: as §1, §2

SMILES: CCC(CC)CC(=O)c1c(C(=O)OC)c(-c2ccc(OC)c(OC)c2)c2c(OC)c(OC)c(OC)cc2c1O [Compound of Prep. 1, Methyl 1-(3,4-dimethoxyphenyl)-3-(3-ethylvalelyl)-4-hydroxy-6,7,8-trimethoxy-2-naphthoate]
- rate of increase in body weight compared with the control [1]: no significant difference
- triglyceride level in the liver tissue compared to the control (in words) ([2]; 12 weeks oral, as shown in Table 1): significant decrease
- triglyceride (liver tissue) ([2]; KKA^y mice, oral administration for 12 weeks, 4 h after final dose): 74.7 ± 7.4 mg/g
- triglyceride level in the liver tissue compared to the control (in words) ([3]; 2 weeks, as shown in Table 2): significant decrease
- triglyceride (liver tissue) ([3]; administration for 2 weeks, Prep. 1 10 mg/kg/day oral, cholestyramine 3% in diet (about 4 g/kg/day)): 49.2 ± 7.7 mg/g
- triglyceride (liver tissue) [4]: 13.2 ± 1.2 mg/g
- inhibition of weight gain [5]: significant inhibition of weight gain
